In ChEMBL document CHEMBL1201862, “PubChem BioAssay data set” (2004):
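A five-concentration, 48-hour dose response in 96-well plates underlies each endpoint, interpolated linearly between surrounding concentrations. Abbreviation: GI50, concentration required for 50% inhibition of growth.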 The source made the active and inactive calls. No stated cut-off is given here; in the data, active = GI50 up to about 1.1 µM and inactive = higher.

Legend:
Experiment in all cases: NCI tumour cell line growth inhibition, 48 h
786-0 = tested on: 786-0
A498 = tested on: A498
A549 = tested on: A549
CAKI-1 = tested on: CAKI-1
CCRF-CEM = tested on: CCRF-CEM
COLO 205 = tested on: COLO 205
DLD-1 = tested on: DLD-1
DMS-114 = tested on: DMS-114
DMS-273 = tested on: DMS-273
EKVX = tested on: EKVX
HCC 2998 = tested on: HCC 2998
HCT-116 = tested on: HCT-116
HCT-15 = tested on: HCT-15
HL-60 = tested on: HL-60
HOP-18 = tested on: HOP-18
HOP-62 = tested on: HOP-62
HOP-92 = tested on: HOP-92
HT-29 = tested on: HT-29
IGROV-1 = tested on: IGROV-1
K562 = tested on: K562
KM-20L2 = tested on: KM-20L2
KM12 = tested on: KM12
LOX IMVI = tested on: LOX IMVI
LXFL 529 = tested on: LXFL 529
M14 = tested on: M14
MOLT-4 = tested on: MOLT-4
Malme-3M = tested on: Malme-3M
NCI-H226 = tested on: NCI-H226
NCI-H23 = tested on: NCI-H23
NCI-H460 = tested on: NCI-H460
NCI-H522 = tested on: NCI-H522
OVCAR-3 = tested on: OVCAR-3
OVCAR-4 = tested on: OVCAR-4
OVCAR-5 = tested on: OVCAR-5
OVCAR-8 = tested on: OVCAR-8
RPMI-8226 = tested on: RPMI-8226
RXF 393 = tested on: RXF 393
SF-268 = tested on: SF-268
SF-295 = tested on: SF-295
SF-539 = tested on: SF-539
SK-MEL-5 = tested on: SK-MEL-5
SK-OV-3 = tested on: SK-OV-3
SN12C = tested on: SN12C
SNB-19 = tested on: SNB-19
SNB-75 = tested on: SNB-75
SNB-78 = tested on: SNB-78
SR = tested on: SR
SW-620 = tested on: SW-620
TK-10 = tested on: TK-10
U-251 = tested on: U-251
UACC-257 = tested on: UACC-257
UACC-62 = tested on: UACC-62
UO-31 = tested on: UO-31
XF498 = tested on: XF498
ACHN = tested on: ACHN
M19-MEL = tested on: M19-MEL
SK-MEL-28 = tested on: SK-MEL-28
SK-MEL-2 = tested on: SK-MEL-2

## N#CC(C#N)=c1[nH]c2cccc3c2-c2c(cccc2c3=C(C#N)C#N)[nH]1
786-0
  GI50: > 100 µM (inactive)
A498
  GI50: > 100 µM (inactive)
A549
  GI50: > 100 µM (inactive)
CAKI-1
  GI50: > 100 µM (inactive)
CCRF-CEM
  GI50: 45.1 µM (inactive)
COLO 205
  GI50: > 100 µM (inactive)
DLD-1
  GI50: > 100 µM (inactive)
DMS-114
  GI50: > 100 µM (inactive)
DMS-273
  GI50: > 100 µM (inactive)
EKVX
  GI50: > 100 µM (inactive)
HCC 2998
  GI50: > 100 µM (inactive)
HCT-116
  GI50: 80.7 µM (inactive)
HCT-15
  GI50: > 100 µM
HL-60
  GI50: > 100 µM (inactive)
HOP-18
  GI50: > 100 µM (inactive)
HOP-62
  GI50: > 100 µM (inactive)
HOP-92
  GI50: > 100 µM (inactive)
HT-29
  GI50: > 100 µM (inactive)
IGROV-1
  GI50: > 100 µM (inactive)
K562
  GI50: > 100 µM (inactive)
KM-20L2
  GI50: > 100 µM (inactive)
KM12
  GI50: > 100 µM (inactive)
LOX IMVI
  GI50: > 100 µM (inactive)
LXFL 529
  GI50: > 100 µM (inactive)
M14
  GI50: > 100 µM (inactive)
MOLT-4
  GI50: > 100 µM (inactive)
Malme-3M
  GI50: > 100 µM (inactive)
NCI-H226
  GI50: > 100 µM (inactive)
NCI-H23
  GI50: > 100 µM (inactive)
NCI-H460
  GI50: > 100 µM (inactive)
NCI-H522
  GI50: > 100 µM (inactive)
OVCAR-3
  GI50: > 100 µM (inactive)
OVCAR-4
  GI50: > 100 µM (inactive)
OVCAR-5
  GI50: > 100 µM (inactive)
OVCAR-8
  GI50: > 100 µM (inactive)
RPMI-8226
  GI50: > 100 µM (inactive)
RXF 393
  GI50: 79.6 µM (inactive)
SF-268
  GI50: > 100 µM (inactive)
SF-295
  GI50: > 100 µM (inactive)
SF-539
  GI50: > 100 µM (inactive)
SK-MEL-5
  GI50: > 100 µM (inactive)
SK-OV-3
  GI50: > 100 µM (inactive)
SN12C
  GI50: > 100 µM (inactive)
SNB-19
  GI50: > 100 µM (inactive)
SNB-75
  GI50: 53.1 µM (inactive)
SNB-78
  GI50: 57.4 µM (inactive)
SR
  GI50: > 100 µM (inactive)
SW-620
  GI50: > 100 µM (inactive)
TK-10
  GI50: > 100 µM (inactive)
U-251
  GI50: > 100 µM (inactive)
UACC-257
  GI50: > 100 µM (inactive)
UACC-62
  GI50: > 100 µM (inactive)
UO-31
  GI50: > 100 µM (inactive)
XF498
  GI50: > 100 µM (inactive)

## O=C1C2=C(CCC2)Nc2cccc3ncn1c23
786-0
  GI50: > 100 µM (inactive)
A549
  GI50: 33.7 µM (inactive)
ACHN
  GI50: 33.2 µM (inactive)
CCRF-CEM
  GI50: > 100 µM (inactive)
COLO 205
  GI50: 43.4 µM (inactive)
DLD-1
  GI50: 51.9 µM (inactive)
DMS-114
  GI50: > 100 µM (inactive)
DMS-273
  GI50: > 100 µM (inactive)
EKVX
  GI50: > 100 µM (inactive)
HCC 2998
  GI50: > 100 µM (inactive)
HCT-116
  GI50: 34 µM (inactive)
HCT-15
  GI50: 48.1 µM
HL-60
  GI50: 15 µM (inactive)
HOP-18
  GI50: 10.6 µM (inactive)
IGROV-1
  GI50: > 100 µM (inactive)
K562
  GI50: > 100 µM (inactive)
KM-20L2
  GI50: 41.9 µM (inactive)
KM12
  GI50: 28.8 µM (inactive)
LOX IMVI
  GI50: 24.5 µM (inactive)
LXFL 529
  GI50: > 100 µM (inactive)
M19-MEL
  GI50: > 100 µM (inactive)
MOLT-4
  GI50: > 100 µM (inactive)
Malme-3M
  GI50: > 100 µM (inactive)
NCI-H23
  GI50: 51.6 µM (inactive)
NCI-H460
  GI50: 33.7 µM (inactive)
NCI-H522
  GI50: 69.7 µM (inactive)
OVCAR-5
  GI50: 15.9 µM (inactive)
OVCAR-8
  GI50: > 100 µM (inactive)
RPMI-8226
  GI50: > 100 µM (inactive)
RXF 393
  GI50: 96.4 µM (inactive)
SF-268
  GI50: > 100 µM (inactive)
SF-295
  GI50: > 100 µM (inactive)
SF-539
  GI50: > 100 µM (inactive)
SK-MEL-28
  GI50: 61.9 µM (inactive)
SK-MEL-2
  GI50: 56.5 µM (inactive)
SK-MEL-5
  GI50: 69.5 µM (inactive)
SK-OV-3
  GI50: 73.5 µM (inactive)
SN12C
  GI50: 55.1 µM (inactive)
SNB-19
  GI50: > 100 µM (inactive)
SNB-78
  GI50: > 100 µM (inactive)
SR
  GI50: > 100 µM (inactive)
SW-620
  GI50: 70.1 µM (inactive)
TK-10
  GI50: 14.7 µM (inactive)
U-251
  GI50: > 100 µM (inactive)
UACC-257
  GI50: 64.7 µM (inactive)
UACC-62
  GI50: 40.1 µM (inactive)
UO-31
  GI50: > 100 µM (inactive)
XF498
  GI50: 34.8 µM (inactive)

## NC(=O)c1ccc(Cl)c([N+](=O)[O-])c1
786-0
  GI50: > 100 µM (inactive)
A498
  GI50: > 100 µM (inactive)
A549
  GI50: > 100 µM (inactive)
ACHN
  GI50: > 100 µM (inactive)
CAKI-1
  GI50: > 100 µM (inactive)
CCRF-CEM
  GI50: > 100 µM (inactive)
COLO 205
  GI50: > 100 µM (inactive)
DLD-1
  GI50: > 100 µM (inactive)
DMS-114
  GI50: > 100 µM (inactive)
DMS-273
  GI50: > 100 µM (inactive)
EKVX
  GI50: > 100 µM (inactive)
HCC 2998
  GI50: > 100 µM (inactive)
HCT-116
  GI50: > 100 µM (inactive)
HCT-15
  GI50: > 100 µM
HL-60
  GI50: > 100 µM (inactive)
HOP-18
  GI50: > 100 µM (inactive)
HOP-62
  GI50: > 100 µM (inactive)
HOP-92
  GI50: > 100 µM (inactive)
HT-29
  GI50: > 100 µM (inactive)
IGROV-1
  GI50: > 100 µM (inactive)
K562
  GI50: > 100 µM (inactive)
KM-20L2
  GI50: > 100 µM (inactive)
KM12
  GI50: > 100 µM (inactive)
LOX IMVI
  GI50: > 100 µM (inactive)
LXFL 529
  GI50: > 100 µM (inactive)
M14
  GI50: > 100 µM (inactive)
M19-MEL
  GI50: > 100 µM (inactive)
MOLT-4
  GI50: > 100 µM (inactive)
Malme-3M
  GI50: > 100 µM (inactive)
NCI-H226
  GI50: > 100 µM (inactive)
NCI-H23
  GI50: > 100 µM (inactive)
NCI-H460
  GI50: > 100 µM (inactive)
NCI-H522
  GI50: 48.9 µM (inactive)
OVCAR-3
  GI50: > 100 µM (inactive)
OVCAR-4
  GI50: > 100 µM (inactive)
OVCAR-5
  GI50: > 100 µM (inactive)
OVCAR-8
  GI50: > 100 µM (inactive)
RPMI-8226
  GI50: > 10 µM (inactive)
RXF 393
  GI50: > 100 µM (inactive)
SF-268
  GI50: > 100 µM (inactive)
SF-295
  GI50: > 100 µM (inactive)
SF-539
  GI50: > 100 µM (inactive)
SK-MEL-28
  GI50: > 100 µM (inactive)
SK-MEL-5
  GI50: > 100 µM (inactive)
SK-OV-3
  GI50: > 100 µM (inactive)
SN12C
  GI50: > 100 µM (inactive)
SNB-19
  GI50: > 100 µM (inactive)
SNB-75
  GI50: > 100 µM (inactive)
SNB-78
  GI50: > 100 µM (inactive)
SW-620
  GI50: > 100 µM (inactive)
TK-10
  GI50: > 100 µM (inactive)
U-251
  GI50: > 100 µM (inactive)
UACC-257
  GI50: > 100 µM (inactive)
UACC-62
  GI50: > 100 µM (inactive)
UO-31
  GI50: > 100 µM (inactive)
XF498
  GI50: > 100 µM (inactive)
